Assay results published in patent US20020137929A1, “1 - (3-heterocyclylphenyl) isothiourea, -isourea, -guanidine and -amidine herbicidal agents” (Intellectual Property Department, BASF Aktiengesellschaft, priority 1998, published 2002).

What was measured:
[1] = tested on: ABUTH (Velvetleaf); assay: Postemergence herbicidal evaluation; type: in vivo, Abutilon theophrasti; details: postemergence
Outline: (§1)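 Compound is applied as a foliar spray to seedlings about two weeks old, formulated in equal parts acetone and water with 0.5% TWEEN 20 and delivered at 40 psi to give about 0.0156–0.500 kg per hectare. Injury is rated visually 0–9 after four to five weeks.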

[2] = tested on: GALAP (Galium); assay: Postemergence herbicidal evaluation; type: in vivo, Galium aparine; details: postemergence
Outline: as §1

[3] = tested on: ECHCG (Barnyardgrass); assay: Postemergence herbicidal evaluation; type: in vivo, Echinochloa crus-galli; details: postemergence
Outline: as §1

[4] = tested on: SETVI (Foxtail, Green); assay: Postemergence herbicidal evaluation; type: in vivo, Setaria viridis; details: postemergence
Outline: as §1

[5] = tested on: ORYSAT (Rice, Tebonnet); assay: Postemergence herbicidal evaluation; type: in vivo, Oryza sativa, (L.) Tebonnet; details: postemergence
Outline: as §1

[6] = tested on: IPOHE (Morningglory, Ivyleaf); assay: Preemergence herbicidal evaluation; type: in vivo, Ipomoea hederacea; details: rated 4-5 weeks after treatment
Outline: (§2)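 Herbicidal effect scored visually, 0-9, at 4 to 5 weeks against a control; compound applied preemergence by aqueous acetone spray to seeded soil at about 0.0156 to 0.500 kg/ha.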

[7] = tested on: TRZAWR (Wheat, Winter, cv Riband); assay: Preemergence herbicidal evaluation; type: in vivo, Triticum aestivum; details: rated 4-5 weeks after treatment
Outline: as §2

[8] = tested on: ZEAMX (Corn, Field); assay: Preemergence herbicidal evaluation; type: in vivo, Zea mays; details: rated 4-5 weeks after treatment
Outline: as §2

[9] = tested on: ECHORC (Watergrass (Calif.)); assay: Preemergence weed control under flooded paddy conditions; type: in vivo, Echinochloa oryzoides; details: rated 3-4 weeks after treatment
Outline: (§3)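 First, seeds or propagules go into the top 0.5 cm of silt loam; next, water is held 1.5 to 3 cm over the soil; then compound (50/50 acetone/water) is pipetted into it at about 0.0313 to 0.500 kg/ha; finally plants are rated visually 0-9 after three to four weeks.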

[10] = tested on: CYPIR (Rice Flatsedge); assay: as above; type: in vivo, Cyperus iria; details: rated 3-4 weeks after treatment
Outline: as §3

[11] = tested on: MOOVA (Monochoria); assay: as above; type: in vivo, Monochoria vaginalis; details: rated 3-4 weeks after treatment
Outline: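 Seeds or propagules sown in top 0.5 cm of silt loam soil, flooded 1.5 to 3 cm above surface throughout. Compound in 50/50 v/v aqueous/acetone pipetted into flood water at about 0.0313 to 0.500 kg/ha. Visual 0-9 rating versus control after three to four weeks in greenhouse.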

[12] = tested on: CYPIR (Rice Flatsedge); assay: Postemergence weed control under flooded paddy conditions; type: in vivo, Cyperus iria; details: postemergence weeds
Outline: (§4)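 Herbicidal effect is judged by eye on a 0–9 scale versus control, 3–4 weeks after dosing. Dosing is into flood water kept 1.5–3 cm over the soil, at about 0.0313–0.500 kg/ha in aqueous/acetone 50/50 v/v, on 3–5 cm weeds and 1.5–2.5-leaf rice seedlings.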

[13] = tested on: CYPSE (Flatsedge); assay: as above; type: in vivo, Cyperus serotinus; details: postemergence weeds
Outline: as §4

[14] = tested on: SAGPY (Arrowhead (Pygmaea)); assay: as above; type: in vivo, Sagittaria pygmaea; details: postemergence weeds
Outline: as §4

[15] = Rate 0.0313 kg/ha, rated 3 to 4 weeks after treatment
[16] = Rate 0.0625 kg/ha, rated 3 to 4 weeks after treatment
[17] = Rate 0.1250 kg/ha, rated 3 to 4 weeks after treatment
[18] = Rate 0.2500 kg/ha, rated 3 to 4 weeks after treatment
[19] = rate 0.0313 kg/ha, 3-4 weeks after treatment
[20] = rate 0.0625 kg/ha, 3-4 weeks after treatment
[21] = rate 0.1250 kg/ha, 3-4 weeks after treatment
[22] = rate 0.2500 kg/ha, 3-4 weeks after treatment

SMILES: Cn1c(C(F)(F)F)cc(=O)n(-c2cc(N=C3SCC(=O)N3CC(=O)OCC#N)c(Cl)cc2F)c1=O [Compound 109, 2-{{2-Chloro-5-[3,6-dihydro-3-methyl-2,6-dioxo-4-(trifluoromethyl)-1(2H)-pyrimidinyl]-4-fluorophenyl}imino}-4-oxo-3-thiazolidineacetic acid, ester with glycolonitrile]
- herbicidal rating ABUTH ([1]; rate 0.0158 kg/ha): 9.0
- herbicidal rating ABUTH ([1]; rate 0.0315 kg/ha): 9.0
- herbicidal rating ABUTH ([1]; rate 0.0630 kg/ha): 9.0
- herbicidal rating GALAP ([2]; rate 0.0158 kg/ha): 1.0
- herbicidal rating GALAP ([2]; rate 0.0315 kg/ha): 3.0
- herbicidal rating GALAP ([2]; rate 0.0630 kg/ha): 5.0
- herbicidal rating ECHCG ([3]; rate 0.0158 kg/ha): 0.0
- herbicidal rating ECHCG ([3]; rate 0.0315 kg/ha): 3.0
- herbicidal rating ECHCG ([3]; rate 0.0630 kg/ha): 3.0
- herbicidal rating SETVI ([4]; rate 0.0158 kg/ha): 6.0
- herbicidal rating SETVI ([4]; rate 0.0315 kg/ha): 7.0
- herbicidal rating SETVI ([4]; rate 0.0630 kg/ha): 9.0
- herbicidal rating ORYSAT ([5]; rate 0.0158 kg/ha): 3.0
- herbicidal rating ORYSAT ([5]; rate 0.0315 kg/ha): 4.5
- herbicidal rating ORYSAT ([5]; rate 0.0630 kg/ha): 5.0
- Preemergence herbicidal rating IPOHE ([6]; rate 0.0156 kg/ha): 2.0
- Preemergence herbicidal rating IPOHE ([6]; rate 0.0313 kg/ha): 2.0
- Preemergence herbicidal rating IPOHE ([6]; rate 0.0625 kg/ha): 5.0
- Preemergence herbicidal rating IPOHE ([6]; rate 0.1250 kg/ha): 8.0
- Preemergence herbicidal rating IPOHE ([6]; rate 0.2500 kg/ha): 8.0
- Preemergence herbicidal rating IPOHE ([6]; rate 0.5000 kg/ha): 9.0
- Preemergence herbicidal rating TRZAWR ([7]; rate 0.0156 kg/ha): 0.0
- Preemergence herbicidal rating TRZAWR ([7]; rate 0.0313 kg/ha): 1.0
- Preemergence herbicidal rating TRZAWR ([7]; rate 0.0625 kg/ha): 1.0
- Preemergence herbicidal rating TRZAWR ([7]; rate 0.1250 kg/ha): 6.0
- Preemergence herbicidal rating TRZAWR ([7]; rate 0.2500 kg/ha): 4.0
- Preemergence herbicidal rating ZEAMX ([8]; rate 0.0156 kg/ha): 3.0
- Preemergence herbicidal rating ZEAMX ([8]; rate 0.0313 kg/ha): 3.5
- Preemergence herbicidal rating ZEAMX ([8]; rate 0.0625 kg/ha): 4.0
- Preemergence herbicidal rating ZEAMX ([8]; rate 0.1250 kg/ha): 6.0
- Preemergence herbicidal rating ZEAMX ([8]; rate 0.2500 kg/ha): 6.5
- Preemergence herbicidal rating ZEAMX ([8]; rate 0.5000 kg/ha): 7.0
- ECHORC herbicidal effect rating ([9]; 0.0313 kg/ha): 9.0
- ECHORC herbicidal effect rating ([9]; 0.0625 kg/ha): 9.0
- ECHORC herbicidal effect rating ([9]; 0.1250 kg/ha): 9.0
- ECHORC herbicidal effect rating ([9]; 0.2500 kg/ha): 9.0
- CYPIR herbicidal effect rating ([10]; 0.0313 kg/ha): 5.0
- CYPIR herbicidal effect rating ([10]; 0.0625 kg/ha): 7.0
- CYPIR herbicidal effect rating ([10]; 0.1250 kg/ha): 9.0
- CYPIR herbicidal effect rating ([10]; 0.2500 kg/ha): 9.0
- MOOVA herbicidal effect rating ([11]; 0.0313 kg/ha): 7.0
- MOOVA herbicidal effect rating ([11]; 0.0625 kg/ha): 9.0
- MOOVA herbicidal effect rating ([11]; 0.1250 kg/ha): 9.0
- MOOVA herbicidal effect rating ([11]; 0.2500 kg/ha): 9.0
- Herbicidal rating CYPIR [12, 15]: 0.0
- Herbicidal rating CYPIR [12, 16]: 2.0
- Herbicidal rating CYPIR [12, 17]: 4.0
- Herbicidal rating CYPIR [12, 18]: 7.0
- Herbicidal rating CYPSE [13, 15]: 0.0
- Herbicidal rating CYPSE [13, 16]: 0.0
- Herbicidal rating CYPSE [13, 18]: 7.0
- Herbicidal rating SAGPY [14, 15]: 0.0
- Herbicidal rating SAGPY [14, 16]: 0.0
- Herbicidal rating SAGPY [14, 17]: 0.0
- Herbicidal rating SAGPY [14, 18]: 0.0

SMILES: CC1SC(=Nc2cc(-n3c(=O)cc(C(F)(F)F)n(C)c3=O)c(F)cc2Cl)N(C)C1=O (stereo not drawn) [Compound 9]
- ABUTH herbicidal rating ([1]; rate 0.0156 kg/ha): 9.0
- ABUTH herbicidal rating ([1]; rate 0.0313 kg/ha): 9.0
- ABUTH herbicidal rating ([1]; rate 0.0625 kg/ha): 9.0
- ABUTH herbicidal rating ([1]; rate 0.1250 kg/ha): 9.0
- GALAP herbicidal rating ([2]; rate 0.0156 kg/ha): 1.5
- GALAP herbicidal rating ([2]; rate 0.0313 kg/ha): 2.5
- GALAP herbicidal rating ([2]; rate 0.0625 kg/ha): 4.5
- GALAP herbicidal rating ([2]; rate 0.1250 kg/ha): 7.5
- ECHCG herbicidal rating ([3]; rate 0.0156 kg/ha): 0.0
- ECHCG herbicidal rating ([3]; rate 0.0313 kg/ha): 0.0
- ECHCG herbicidal rating ([3]; rate 0.0625 kg/ha): 2.0
- ECHCG herbicidal rating ([3]; rate 0.1250 kg/ha): 4.5
- SETVI herbicidal rating ([4]; rate 0.0156 kg/ha): 1.0
- SETVI herbicidal rating ([4]; rate 0.0313 kg/ha): 2.0
- SETVI herbicidal rating ([4]; rate 0.0625 kg/ha): 6.5
- SETVI herbicidal rating ([4]; rate 0.1250 kg/ha): 9.0
- ORYSAT herbicidal rating ([5]; rate 0.0156 kg/ha): 2.0
- ORYSAT herbicidal rating ([5]; rate 0.0313 kg/ha): 2.3
- ORYSAT herbicidal rating ([5]; rate 0.0625 kg/ha): 3.0
- ORYSAT herbicidal rating ([5]; rate 0.1250 kg/ha): 3.5
- IPOHE preemergence herbicidal rating ([6]; rate 0.0156 kg/ha): 5.0
- IPOHE preemergence herbicidal rating ([6]; rate 0.0313 kg/ha): 7.7
- IPOHE preemergence herbicidal rating ([6]; rate 0.0625 kg/ha): 7.0
- IPOHE preemergence herbicidal rating ([6]; rate 0.1250 kg/ha): 9.0
- IPOHE preemergence herbicidal rating ([6]; rate 0.2500 kg/ha): 9.0
- TRZAWR preemergence herbicidal rating ([7]; rate 0.0156 kg/ha): 4.0
- TRZAWR preemergence herbicidal rating ([7]; rate 0.0313 kg/ha): 7.0
- TRZAWR preemergence herbicidal rating ([7]; rate 0.0625 kg/ha): 7.5
- TRZAWR preemergence herbicidal rating ([7]; rate 0.1250 kg/ha): 9.0
- TRZAWR preemergence herbicidal rating ([7]; rate 0.2500 kg/ha): 9.0
- ZEAMX preemergence herbicidal rating ([8]; rate 0.0156 kg/ha): 6.7
- ZEAMX preemergence herbicidal rating ([8]; rate 0.0313 kg/ha): 7.0
- ZEAMX preemergence herbicidal rating ([8]; rate 0.0625 kg/ha): 8.3
- ZEAMX preemergence herbicidal rating ([8]; rate 0.1250 kg/ha): 8.7
- ZEAMX preemergence herbicidal rating ([8]; rate 0.2500 kg/ha): 8.7
- Herbicidal rating ECHORC ([9]; 0.0313 kg/ha): 0.0
- Herbicidal rating ECHORC ([9]; 0.0625 kg/ha): 2.0
- Herbicidal rating ECHORC ([9]; 0.1250 kg/ha): 4.0
- Herbicidal rating ECHORC ([9]; 0.2500 kg/ha): 7.0
- Herbicidal rating CYPIR ([10]; 0.0313 kg/ha): 0.0
- Herbicidal rating CYPIR ([10]; 0.0625 kg/ha): 2.0
- Herbicidal rating CYPIR ([10]; 0.1250 kg/ha): 4.0
- Herbicidal rating CYPIR ([10]; 0.2500 kg/ha): 6.0
- Herbicidal rating MOOVA ([11]; 0.0313 kg/ha): 9.0
- Herbicidal rating MOOVA ([11]; 0.0625 kg/ha): 9.0
- Herbicidal rating MOOVA ([11]; 0.1250 kg/ha): 9.0
- Herbicidal rating MOOVA ([11]; 0.2500 kg/ha): 9.0
- Herbicidal rating CYPIR [12, 19]: 0.0
- Herbicidal rating CYPIR [12, 20]: 2.0
- Herbicidal rating CYPIR [12, 21]: 4.0
- Herbicidal rating CYPIR [12, 22]: 6.0
- Herbicidal rating CYPSE [13, 19]: 0.0
- Herbicidal rating CYPSE [13, 20]: 0.0
- Herbicidal rating CYPSE [13, 21]: 2.0
- Herbicidal rating CYPSE [13, 22]: 7.0
- Herbicidal rating SAGPY [14, 19]: 0.0
- Herbicidal rating SAGPY [14, 20]: 0.0
- Herbicidal rating SAGPY [14, 21]: 1.0
- Herbicidal rating SAGPY [14, 22]: 2.0
